From ChEMBL document CHEMBL3988442, “University of Dundee, Small-Polar-MMV Screening Library” (2021)

Experiments:
[1] = microbe, parasite or virus in culture; conditions: Mycobacterium tuberculosis, 72 h, read-out: pIC50 (converted)
[2] = microbe, parasite or virus in culture; conditions: Mycobacterium tuberculosis, 96 h, read-out: pIC50 (converted)

SMILES	IC50 [1] [µM]	IC50 [2] [µM]
CCOC1COC2(CCN(Cc3ccc4c(c3)OCO4)CC2)C1 (stereo not drawn)	> 50.1	> 50.1
CC(C)Nc1nc(N2CCCC2)nc2c1CN(C(C)C)CC2	26.5	15.8
O=C(c1ccnn1COc1ccc(Cl)cc1)N1CCCC1	> 50.1	> 50.1
Cc1cccc(NC(=O)C(C)Oc2ccc3c(c2)OCO3)n1 (stereo not drawn)	16	5.27
Cc1csc(NC(=O)C(C)Oc2ccc3c(c2)OCO3)n1 (stereo not drawn)	30.5	1.63
Cc1ccc(CNC(=O)c2ccc(F)cc2)o1	19.6	47.3
CCCn1nccc1C(=O)Nc1nc(C)c(C)s1	> 50.1	47.4
Nc1nnnn1NCc1cccc(Cl)c1Cl	> 50.1	> 50.1
CCOc1ccc(N2CCCN=C2NC(=O)c2ccc(Cl)cc2)cc1	> 50.1	> 50.1
CC1CCN(C(=O)C(C)Oc2ccc3c(c2)OCO3)CC1 (stereo not drawn)	30.1	38.9
Cn1nnc(NCc2ccc(-c3ccc(Cl)cc3)o2)n1	42.2	8.3
Cn1nnc(NCc2ccc(-c3ccc(Br)cc3)o2)n1	25.3	11.9
CCn1nnc(NCc2ccc(-c3ccc(Br)cc3)o2)n1	44.3	14.1
O=c1c2cc3c(cc2nnn1Cc1ccccc1Cl)OCCO3	> 50.1	> 50.1
Fc1cccc(Cl)c1CNCCOc1ccccn1	> 50.1	> 50.1
CCn1nc(C)c2nc(C)nc(NCCc3ccc(C)cc3)c21	47.4	42.5
CCn1nc(C)c2nc(C)nc(NCCc3ccccc3)c21	32.5	> 50.1
CCCc1nc(N(C)Cc2ccco2)c2c(n1)c(C)nn2CC	25.2	12
CCCc1nc(N2CCCC(C)C2)c2c(n1)c(C)nn2CC (stereo not drawn)	24.2	> 50.1
CCCc1nc(N2CCCCCC2)c2c(n1)c(C)nn2CC	23.6	43.2
CCCc1nc(N2CCCCC2)c2c(n1)c(C)nn2CC	38.4	39.3
COc1ccc(CNc2nc(C3CC3)nc3c(C)nn(C)c23)cc1	27.3	9.46
CCOC(=O)c1cc(C(C)(O)CCC=C(C)C)on1 (stereo not drawn)	36.4	25.8
CC1CCCCN1C(=O)COCc1nc(-c2ccncc2)no1 (stereo not drawn)	> 50.1	> 50.1

SMILES	IC50 [1] [µM]	IC50 [2] [µM]
CCCNC(=O)c1cc(C(C)C)nc(N2CCCC2)n1	11.5	41.7
CC(C)c1cc(C(=O)NCCCN(C)C)nc(N2CCCC2)n1	30	31.2
Fc1ccccc1CN1CCC[C@H](Cn2nnc(-c3cccs3)n2)C1	12.9	26.3
CC1(c2ncc(CN3CCN(c4ncccn4)CC3)cn2)CCCCO1 (stereo not drawn)	> 50.1	> 50.1
CCOc1cc([C@H]2N[C@@H](c3nc(C)cs3)Cc3ccsc32)ccc1OC	12.8	> 50.1
CNC(=O)C1CN(C(=O)c2cccs2)CCN(S(C)(=O)=O)C1 (stereo not drawn)	> 50.1	> 50.1
COc1cc(CCC(=O)N2CCC(c3cc4nccnc4[nH]3)CC2)on1	30.7	> 50.1
Nc1cc(-c2c[nH]nc2C2CCCCN2C(=O)C2CCCC2)ccn1 (stereo not drawn)	> 50.1	> 50.1
CC(C)N1CC(C(=O)NCc2ccc(S(=O)(=O)N(C)C)cc2)CC1=O (stereo not drawn)	> 50.1	> 50.1
CN(CC1(C)COC1)C(=O)c1cc(-c2cnn(C)c2)nc2ccccc12	> 50.1	> 50.1
CCc1ccccc1NC(=O)NCc1nnc(SC)n1C	> 50.1	> 50.1
O=C(c1cnc(C2CC2)nc1)N1CCCC(c2nccs2)C1 (stereo not drawn)	8.4	6.43
CN(C)c1cc(C2CCCN(C(=O)c3noc4c3CCCC4)C2)ccn1 (stereo not drawn)	40	35.7
NC(=O)C1(c2cnccn2)CCCN1C(=O)Cc1ccsc1 (stereo not drawn)	> 50.1	> 50.1
CC(C)n1nnc(CC(=O)NCC2(c3cccc(F)c3)CCCC2)n1	> 50.1	> 50.1
c1ccc(Cc2cccc(C3CCCN3C3CCOCC3)n2)cc1 (stereo not drawn)	13.2	> 50.1
Cc1cccc(C2(O)CCN(Cc3ccccc3N3CCCC3)CC2)c1	12.1	20.7
CN1CCCC(c2cccc(-c3cccc(C(F)(F)F)c3)n2)C1 (stereo not drawn)	2.88	3.45
O=C(NC[C@H]1CC[C@H](c2ccnc3ncnn32)CC1)C1CC1	> 50.1	> 50.1
O=C(NCC1(O)COCCN(Cc2cccc(O)c2)C1)c1cscn1 (stereo not drawn)	> 50.1	> 50.1
Cc1cc(CN2CCc3nc(C(C)C)nc(O)c3CC2)c(C)s1	> 50.1	> 50.1
Cc1noc(-c2c[nH]nc2C2CCCN2C(=O)c2ccccc2)c1C (stereo not drawn)	> 50.1	> 50.1
Cn1cncc1CN1CCCC1c1cncc(Oc2ccc(F)cc2)n1 (stereo not drawn)	19.4	> 50.1
O=C(c1ccno1)N1CCCC(c2ncncc2-c2ccncc2)C1 (stereo not drawn)	> 50.1	> 50.1

SMILES	IC50 [1] [µM]	IC50 [2] [µM]
NCCn1nc(C2CCN(Cc3ccccc3Cl)C2)c2nccnc21 (stereo not drawn)	> 50.1	> 50.1
Cc1nc(Nc2ncccn2)cc(C2CN(C(=O)c3cccnc3)C2)n1	> 50.1	> 50.1
c1cncc(CN2CCCC(c3nnc(-c4cnccn4)o3)C2)c1 (stereo not drawn)	> 50.1	> 50.1
COc1ccc(CNc2ncc(-c3cc(C)no3)c(C(C)C)n2)cc1	> 50.1	> 50.1
CC(=O)NCC(=O)N1C[C@@H]2CC[C@H](Oc3ccccc3Cl)[C@@H]2C1	> 50.1	> 50.1
Cc1cc(C)nc(N2CCCC(c3cccc(-n4ccnc4)n3)C2)n1 (stereo not drawn)	26.9	28.7
CC(=O)N1CCCC(c2cnc(-c3c(C)nn(C)c3C)cn2)C1 (stereo not drawn)	> 50.1	> 50.1
CN1CCC(Cc2cc(Nc3ncccn3)ncn2)CC1	> 50.1	> 50.1
CC(=O)N1CCCC1c1cccc(Cc2ccccc2F)n1 (stereo not drawn)	29.2	39
COc1ccc(NC(=O)CNc2ccc(Br)cc2F)cc1	> 50.1	> 50.1
COC(=O)[C@H](C)NC(=O)c1cc(-c2cccc(Cl)c2)no1	42.5	26
COc1cccc(CN(C)C(=O)CSc2ccc3c(c2)OCCO3)c1	> 50.1	25
c1cnnc(N2CCCC2CNCc2nc3ccccc3o2)c1 (stereo not drawn)	29.6	32.7
CS(=O)(=O)NCC1CCCN(C(=O)Nc2ccccc2Cl)C1 (stereo not drawn)	> 50.1	> 50.1
CN(Cc1cnn(C)c1)C(=O)c1ccc(=O)n(C)n1	> 50.1	> 50.1
CCn1nnc2c1C(COCC(=O)N(C)C)CN(Cc1ccoc1)C2 (stereo not drawn)	> 50.1	> 50.1
Cc1ccccc1C(=O)N1CC[C@@H]2CN(c3ncccn3)CCO[C@@H]2C1	> 50.1	> 50.1
O=C(c1cccs1)N1CCC2(CC1)CN(c1ccsc1)C(=O)CO2	> 50.1	> 50.1
COc1cccc(C(=O)N2CCOC3(CCCN(C(C)=O)C3)C2)c1 (stereo not drawn)	> 50.1	> 50.1
Cn1cccc1C(=O)N1CCN2C[C@H](Oc3cccnc3)C[C@H]2C1	> 50.1	> 50.1
CC(C)CCN1Cc2c(C(=O)O)ncn2-c2ccccc2S1(=O)=O	> 50.1	> 50.1
Cc1nn(C)cc1S(=O)(=O)NCC(c1ccccc1)N1CCCCCC1 (stereo not drawn)	> 50.1	> 50.1
FC(F)(F)c1ccc(-c2cnc(C3CCCN3)cn2)cc1 (stereo not drawn)	13.9	2.02
O=c1c2sccc2nc2n1CCN(Cc1ccc(F)c(F)c1)CC2	> 50.1	4.05

SMILES	IC50 [1] [µM]	IC50 [2] [µM]
CCOc1ccc(CN2CCc3nc4ccsc4c(=O)n3CC2)cc1	37.8	16.3
O=c1c2sccc2nc2n1CCN(Cc1ccccc1C(F)(F)F)CC2	> 50.1	> 50.1
O=c1c2sccc2nc2n1CCN(Cc1cc(F)ccc1F)CC2	25	> 50.1
Clc1ccccc1CN1CCc2nc(C3CCNCC3)ncc2C1	4.89	> 50.1
Cn1nc(C2CCCN(Cc3cc(F)ccc3F)C2)c2nccnc21 (stereo not drawn)	> 50.1	> 50.1
O=C(c1cccnc1)N1CCC2(CC1)CNc1c(F)cccc12	> 50.1	> 50.1
Cc1nc(N2CCCC2)nc2c1CCN(Cc1ccco1)CC2	4.72	4.23
CCN1CC2(CC1=O)CN(Cc1cnn(C)c1)CCN(C(=O)C(C)C)C2 (stereo not drawn)	> 50.1	> 50.1
CS(=O)(=O)NC[C@H]1OC[C@@H]2CCN(CCc3ccccc3)C[C@@H]21	> 50.1	> 50.1
c1cnc(N2CC[C@@H](OCC3CC3)[C@@H]2Cc2cccnc2)nc1	> 50.1	> 50.1
COc1ccc(CN2CC[C@@H](O)[C@@H]2Cc2cnn(C)c2)cc1	> 50.1	> 50.1
O=C1[C@H]2CN(Cc3ccco3)C[C@H]2CN1c1ccsc1	8.77	14.2
CN(C)CCNC(=O)c1ccn(-c2ccc3ccccn23)n1	> 50.1	> 50.1
Cn1ccnc1CN1CCC2(CC(=O)N(c3cncnc3)C2)C1 (stereo not drawn)	> 50.1	> 50.1
O=C(Nc1cccnc1)[C@H]1COC[C@H]2CN(C3CCCC3)C[C@H]21	> 50.1	> 50.1
O=C1N(Cc2cccnc2)CCC12CCCN(c1ncccn1)C2 (stereo not drawn)	> 50.1	> 50.1
CN(C)CCN1CCOCC2(C1)CN(Cc1ccsc1)CCO2 (stereo not drawn)	> 50.1	> 50.1
CCc1ncc(CN(CCc2ccccc2)Cc2cccs2)cn1	19.7	9.25
Cc1cc(C[C@@H]2COC[C@H]2NCc2ccc(C(C)C)cc2)on1	34.6	11.5
CCc1ccc(CN(CCCn2ccnc2)Cc2ccc(C)s2)o1	37.5	36.8
Cc1ccc(N(CC(=O)c2ccc(Br)cc2)C2=NCCCCC2)cc1	11.1	23.1
CCOc1ccc(N(CC(=O)c2ccccc2)C2=NCCCCC2)cc1	22.4	27.6
